Source: the supplement of paper PMC13380429

Key:
Conditions in all cases: 72 h
U2OS [1] = experiment: relative viability EC50 (midpoint between 100% and the lowest measured viability); higher = less toxic
Calu-3 [2] = experiment: as above
HepG2 [3] = experiment: as above
Caco-2 [4] = experiment: as above
Vero E6 [5] = experiment: as above
U2OS [6] = experiment: drug sensitivity score (DSS) for viability; higher = more toxic; extreme values may be limits of the assay
Calu-3 [7] = experiment: as above
HepG2 [8] = experiment: as above
Caco-2 [9] = experiment: as above
Vero E6 [10] = experiment: as above
U2OS [11] = experiment: cell viability relative to DMSO; higher = less toxic
Calu-3 [12] = experiment: as above
HepG2 [13] = experiment: as above
Caco-2 [14] = experiment: as above
Vero E6 [15] = experiment: as above

SMILES | relative viability EC50 (U2OS [1]) | relative viability EC50 (Calu-3 [2]) | relative viability EC50 (HepG2 [3]) | relative viability EC50 (Caco-2 [4]) | relative viability EC50 (Vero E6 [5]) | drug sensitivity score (U2OS [6]) | drug sensitivity score (Calu-3 [7]) | drug sensitivity score (HepG2 [8]) | drug sensitivity score (Caco-2 [9]) | drug sensitivity score (Vero E6 [10]) | cell viability (U2OS [11]; 1 nM) | cell viability (U2OS [11]; 10 nM) | cell viability (U2OS [11]; 100 nM) | cell viability (U2OS [11]; 1000 nM) | cell viability (U2OS [11]; 10000 nM) | cell viability (Calu-3 [12]; 1 nM) | cell viability (Calu-3 [12]; 10 nM) | cell viability (Calu-3 [12]; 100 nM) | cell viability (Calu-3 [12]; 1000 nM) | cell viability (Calu-3 [12]; 10000 nM) | cell viability (HepG2 [13]; 1 nM) | cell viability (HepG2 [13]; 10 nM) | cell viability (HepG2 [13]; 100 nM) | cell viability (HepG2 [13]; 1000 nM) | cell viability (HepG2 [13]; 10000 nM) | cell viability (Caco-2 [14]; 1 nM) | cell viability (Caco-2 [14]; 10 nM) | cell viability (Caco-2 [14]; 100 nM) | cell viability (Caco-2 [14]; 1000 nM) | cell viability (Caco-2 [14]; 10000 nM) | cell viability (Vero E6 [15]; 1 nM) | cell viability (Vero E6 [15]; 10 nM) | cell viability (Vero E6 [15]; 100 nM) | cell viability (Vero E6 [15]; 1000 nM) | cell viability (Vero E6 [15]; 10000 nM)
CC(C)NCC(O)c1ccc([N+](=O)[O-])cc1 (stereo not given) [nifenalol] | > 10 µM | > 10 µM | > 10 µM | > 10 µM | > 10 µM | 0 | 0 | 0 | 0 | 0 | 93.8% | 100% | 102% | 99.2% | 99.7% | 101% | 96.8% | 103% | 98.4% | 108% | 98.3% | 101% | 103% | 108% | 106% | 87.2% | 99.9% | 92.7% | 85.1% | 94% | 107% | 106% | 102% | 93.3% | 89.6%
CC1C=CC=CCCC=CC=CC=CC=CC(OC2OC(C)C(O)C(N)C2O)CC2OC(O)(CC(O)C(O)CCC(O)CC(O)CC(O)CC(=O)OC(C)C(C)C1O)CC(O)C2C(=O)O (stereo not given) [nystatin] | > 10 µM | > 10 µM | > 10 µM | > 10 µM | > 10 µM | 0 | 0 | 0 | 0 | 0 | 102% | 99.3% | 99% | 102% | 104% | 106% | 84.5% | 94.6% | 104% | 109% | 96.7% | 101% | 98.7% | 96.8% | 110% | 98.4% | 98.5% | 97.4% | 97.4% | 103% | 92.9% | 93.6% | 94.7% | 96.1% | 107%
C[C@@H](O)[C@@H]1NC(=O)[C@H](CCCCN)NC(=O)[C@@H](Cc2c[nH]c3ccccc23)NC(=O)[C@H](Cc2ccccc2)NC(=O)[C@@H](NC(=O)[C@H](N)Cc2ccccc2)CSSC[C@@H](C(=O)N[C@H](CO)[C@@H](C)O)NC1=O [octreotide] | > 10 µM | > 10 µM | > 10 µM | > 10 µM | > 10 µM | 0 | 0 | 0 | 0 | 0 | 97.5% | 101% | 96% | 102% | 101% | 94.3% | 91.9% | 120% | 101% | 109% | 98.1% | 98.9% | 98.8% | 115% | 92.7% | 103% | 115% | 95.6% | 119% | 104% | 110% | 103% | 110% | 107% | 93%
CS(=O)(=O)Nc1ccc2oc3c(OC(F)F)ccc(C(=O)Nc4c(Cl)cncc4Cl)c3c2c1 [oglemilast] | > 10 µM | > 10 µM | > 10 µM | > 10 µM | > 10 µM | 0 | 1.3 | 0.6 | 0 | 0 | 97.6% | 104% | 97% | 101% | 94.2% | 91% | 88.4% | 100% | 92.7% | 81.1% | 96.1% | 87.9% | 93.3% | 86% | 89.8% | 108% | 101% | 92.2% | 103% | 90.1% | 102% | 95.9% | 96.2% | 90.5% | 99.8%
CS(=O)(=O)n1cc2c(n1)CN([C@H]1CO[C@H](c3cc(F)ccc3F)[C@@H](N)C1)C2 [omarigliptin] | > 10 µM | > 10 µM | > 10 µM | > 10 µM | > 10 µM | 0 | 0 | 0 | 0 | 0 | 97.8% | 96.8% | 94.2% | 101% | 104% | 98.4% | 97.7% | 88.4% | 108% | 100% | 103% | 106% | 101% | 99.7% | 103% | 92.5% | 101% | 95.4% | 97.5% | 106% | 97.8% | 103% | 95.5% | 98.7% | 103%
CC[N+](C)(CC)CCOC(=O)C(O)(c1ccccc1)C1CCCCC1 (stereo not given) [oxyphenonium] | > 10 µM | > 10 µM | > 10 µM | > 10 µM | > 10 µM | 0 | 0.1 | 0 | 0 | 0 | 97.8% | 100% | 98.8% | 98.3% | 96.6% | 92.9% | 106% | 97.5% | 99.2% | 87.2% | 90.4% | 94.1% | 98.1% | 86.2% | 99.4% | 88.6% | 98.4% | 88.7% | 101% | 95.6% | 95.9% | 97.2% | 100% | 99.4% | 96.8%
O=P(O)(NCCCl)NCCCl [palifosfamide] | > 10 µM | > 10 µM | > 10 µM | > 10 µM | > 10 µM | 0 | 0 | 0 | 0 | 0 | 100% | 94% | 102% | 98.9% | 97.2% | 91.6% | 101% | 99.4% | 98.8% | 105% | 100% | 102% | 95.3% | 106% | 108% | 94.4% | 93.7% | 103% | 98.4% | 93.7% | 93.5% | 95.9% | 91.7% | 98.1% | 107%
NCCC(O)(P(=O)(O)O)P(=O)(O)O [pamidronate] | > 10 µM | > 10 µM | > 10 µM | > 10 µM | > 10 µM | 0 | 0 | 0 | 0 | 0 | 98.7% | 101% | 95.6% | 101% | 99% | 92.7% | 111% | 100% | 98.9% | 93.8% | 106% | 105% | 97.5% | 108% | 106% | 87.2% | 104% | 106% | 96% | 97.2% | 100% | 94.8% | 96.2% | 97.9% | 101%
Oc1cc(O)cc(/C=C/c2ccc(O)c(O)c2)c1 [piceatannol] | > 10 µM | > 10 µM | > 10 µM | > 10 µM | > 10 µM | 0 | 0 | 0 | 0.5 | 0 | 97.5% | 98.2% | 94.2% | 100% | 96.1% | 95.3% | 93.5% | 90.4% | 99.9% | 88.9% | 98.8% | 87.3% | 105% | 92.7% | 97.7% | 90.2% | 93.7% | 101% | 96.1% | 86% | 103% | 94.1% | 94.8% | 92.1% | 101%
Cc1cccc(C)c1NC(=O)CN1CCCCCC1 [pincainide] | > 10 µM | > 10 µM | > 10 µM | > 10 µM | > 10 µM | 0 | 0 | 0 | 0.2 | 0 | 97.7% | 103% | 98% | 101% | 101% | 95.1% | 96% | 99% | 98.7% | 97.5% | 99.2% | 106% | 118% | 104% | 106% | 94.3% | 102% | 94.1% | 110% | 82% | 98.7% | 87.8% | 95.7% | 89.2% | 107%
